From patent US20110143948A1, “MOLECULAR SIGNATURES AND BIOMARKERS ASSOCIATED WITH MELANOMA AND METHODS OF USE THEREOF” (priority 2008, published 2011) come the findings set out here.

This series has as its system ncRNAs (SEQ ID NO 28-89). Description: ncRNA arrays of melanocytes, keratinocytes, normal skin, melanoma cell lines and patient samples. The arrangement: species or system human. The note with it: for ncRNA array expression, patient 2: melanoma patient 2 sample compared to normal skin; for ncRNA array expression, patient 3: melanoma patient 3 sample compared to normal skin; for ncRNA array expression, patient 4: melanoma patient 4 sample compared to normal skin; for ncRNA array expression, patient 5: melanoma patient 5 sample compared to normal skin; for ncRNA array expression, patient 6: melanoma patient 6 sample compared to normal skin; for ncRNA array expression, patient 7: melanoma patient 7 sample compared to normal skin; for ncRNA array expression, patient 8: melanoma patient 8 sample compared to normal skin; for ncRNA array expression, patient 9: melanoma patient 9 sample compared to normal skin; for ncRNA array expression, patient 10: melanoma patient 10 sample compared to normal skin; for ncRNA array expression, patient 19: melanoma patient 19 sample compared to normal skin; for ncRNA array expression, patient 20: melanoma patient 20 sample compared to normal skin; for ncRNA array expression, patient 21: melanoma patient 21 sample compared to normal skin; for ncRNA array expression, patient 22: melanoma patient 22 sample compared to normal skin; for ncRNA array expression, patient 23: melanoma patient 23 sample compared to normal skin; for ncRNA array expression, patient 24: melanoma patient 24 sample compared to normal skin; for ncRNA array expression, patient 25: melanoma patient 25 sample compared to normal skin; for ncRNA array expression, patient 26: melanoma patient 26 sample compared to normal skin; for ncRNA array expression, patient 27: melanoma patient 27 sample compared to normal skin; for ncRNA array expression, patient 28: melanoma patient 28 sample compared to normal skin; for ncRNA array expression, patient 29: melanoma patient 29 sample compared to normal skin; for ncRNA array expression, patient 30: melanoma patient 30 sample compared to normal skin. In a few lines:
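Differential ncRNA expression was defined against melanocytes or normal skin after subtracting keratinocyte-specific signals, with confirmation by qRT-PCR and Northern blot. Samples were melanoma cell lines, patient tumours, melanocytes, keratinocytes and normal skin, hybridised to a >10,000-probe (>200 nt) ncRNA array that also carries RefSeq mRNA probes.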

On to “SEQ ID NO 52 (TTTTCTTAGTCTTTTTACTTTTTCCATTATATTCTTTGATATATTTGAGAAAATGGCTTG; listed as DNA, chemistry not given here; listed as Homo sapiens)”, for which the “ncRNA array expression, patient 2” value is on record as 2.853; the “ncRNA array expression, patient 3” value was 1.986; the “ncRNA array expression, patient 4” value worked out at 3.663; the “ncRNA array expression, patient 5” value was determined as 1.552. The “ncRNA array expression, patient 6” value amounted to 0.7809; the “ncRNA array expression, patient 7” value came to 0.9779; the “ncRNA array expression, patient 8” value is reported as 2.426; the “ncRNA array expression, patient 9” value is 0.8678. For the same substance, the “ncRNA array expression, patient 10” value is on record as 0.7332; the “ncRNA array expression, patient 19” value worked out at 0.9835; the “ncRNA array expression, patient 20” value is given as −0.5729; the “ncRNA array expression, patient 21” value is 0.7286. Further, the “ncRNA array expression, patient 22” value is −0.2277; the “ncRNA array expression, patient 23” value was −0.706; the “ncRNA array expression, patient 24” value is recorded as −0.4016; the “ncRNA array expression, patient 25” value is 3.265. Besides, the “ncRNA array expression, patient 26” value is given as 3.428; the “ncRNA array expression, patient 27” value was 0.4479; the “ncRNA array expression, patient 28” value came out at 2.064; the “ncRNA array expression, patient 29” value was 1.478. For the same substance, the “ncRNA array expression, patient 30” value is −0.5811.
For “SEQ ID NO 53 (ATATATTTAGATAGTACTATGTTTCGTTTTCTTCCGATTTCAGGGATCCTTTTGTCTTAC; listed as DNA, chemistry not given here; listed as Homo sapiens)”, the “ncRNA array expression, patient 2” value is given as −2.867; the “ncRNA array expression, patient 3” value is recorded as −2.306; the “ncRNA array expression, patient 4” value is recorded as −2.08; the “ncRNA array expression, patient 5” value is listed as −2.02. The “ncRNA array expression, patient 6” value is −1.882; the “ncRNA array expression, patient 7” value is on record as −2.068; the “ncRNA array expression, patient 8” value is given as −1.878; the “ncRNA array expression, patient 9” value is −2.195. The “ncRNA array expression, patient 10” value is on record as −3.16; the “ncRNA array expression, patient 19” value is on record as −2.319; the “ncRNA array expression, patient 20” value is reported as −1.903; the “ncRNA array expression, patient 21” value is −2.124. Besides, the “ncRNA array expression, patient 22” value is −2.7031; the “ncRNA array expression, patient 23” value is recorded as −3.175; the “ncRNA array expression, patient 24” value is on record as −1.827; the “ncRNA array expression, patient 25” value is given as −2.864. Further, the “ncRNA array expression, patient 26” value is −3.105; the “ncRNA array expression, patient 27” value was −2.542; the “ncRNA array expression, patient 28” value is given as −1.905; the “ncRNA array expression, patient 29” value was −2.948. Moreover, the “ncRNA array expression, patient 30” value is recorded as −3.05.
Take “SEQ ID NO 54 (TTTTTTTTCTTGTCCTATTACAACATTTTATAACCTTATGAATCAATGGATACTTTTATT; listed as DNA, chemistry not given here; listed as Homo sapiens)”: the “ncRNA array expression, patient 2” value worked out at 0.357; the “ncRNA array expression, patient 3” value stood at 2.627; the “ncRNA array expression, patient 4” value was found to be 3.179; the “ncRNA array expression, patient 5” value is 0.2547. The “ncRNA array expression, patient 6” value amounted to 0.568; the “ncRNA array expression, patient 7” value turned out to be 1.3; the “ncRNA array expression, patient 8” value is on record as 1.144; the “ncRNA array expression, patient 9” value was −0.1401. Besides, the “ncRNA array expression, patient 10” value came to 0.4363; the “ncRNA array expression, patient 19” value worked out at 3.034; the “ncRNA array expression, patient 20” value is reported as 1.876; the “ncRNA array expression, patient 21” value was 1.299. The “ncRNA array expression, patient 22” value is given as −0.2466; the “ncRNA array expression, patient 23” value turned out to be 0.7631; the “ncRNA array expression, patient 24” value was found to be 2.124; the “ncRNA array expression, patient 25” value is recorded as 3.287. Besides, the “ncRNA array expression, patient 26” value is recorded as 2.689; the “ncRNA array expression, patient 27” value is 4.17; the “ncRNA array expression, patient 28” value was determined as 1.501; the “ncRNA array expression, patient 29” value is −0.1851. Further, the “ncRNA array expression, patient 30” value is −0.1125.
On to “SEQ ID NO 55 (CCTCTCCCCTTCTTGCAAAAAATATTCTATATTCAAGTTTAGGAGAAAACAGAATACTTG; listed as DNA, chemistry not given here; listed as Homo sapiens)”, for which the “ncRNA array expression, patient 2” value is on record as −1.54; the “ncRNA array expression, patient 3” value is listed as −1.638; the “ncRNA array expression, patient 4” value is reported as −1.747; the “ncRNA array expression, patient 5” value was −1.565. For the same substance, the “ncRNA array expression, patient 6” value is recorded as −1.135; the “ncRNA array expression, patient 7” value is −1.9789; the “ncRNA array expression, patient 8” value is −1.065; the “ncRNA array expression, patient 9” value is −2.029. The “ncRNA array expression, patient 10” value was −1.191; the “ncRNA array expression, patient 19” value is given as −1.029; the “ncRNA array expression, patient 20” value is given as −1.812; the “ncRNA array expression, patient 21” value is −2.321. For the same substance, the “ncRNA array expression, patient 22” value is reported as −1.439; the “ncRNA array expression, patient 23” value was −1.275; the “ncRNA array expression, patient 24” value was −1.478; the “ncRNA array expression, patient 25” value is recorded as −2.11. In addition, the “ncRNA array expression, patient 26” value is −2.186; the “ncRNA array expression, patient 27” value is listed as −2.019; the “ncRNA array expression, patient 28” value is −2.043; the “ncRNA array expression, patient 29” value was −2.155. For the same substance, the “ncRNA array expression, patient 30” value was −0.5021.
On to “SEQ ID NO 56 (AAAAAATGAGGCAATCTCATCCCGAAACTATTTAAAACTACTCTCCTCTCTCTTGATAAA; listed as DNA, chemistry not given here; listed as Homo sapiens)”, for which the “ncRNA array expression, patient 2” value is recorded as −2.014; the “ncRNA array expression, patient 3” value is −1.535; the “ncRNA array expression, patient 4” value is listed as −1.64; the “ncRNA array expression, patient 5” value is reported as −1.4872. Also, the “ncRNA array expression, patient 6” value is on record as −1.129; the “ncRNA array expression, patient 7” value is on record as −1.282; the “ncRNA array expression, patient 8” value is given as −1.314; the “ncRNA array expression, patient 9” value is on record as −1.818. Moreover, the “ncRNA array expression, patient 10” value was −2.922; the “ncRNA array expression, patient 19” value is −1.228; the “ncRNA array expression, patient 20” value is reported as −1.698; the “ncRNA array expression, patient 21” value was −1.986. Also, the “ncRNA array expression, patient 22” value is recorded as −1.277; the “ncRNA array expression, patient 23” value is given as −1.277; the “ncRNA array expression, patient 24” value is −1.273; the “ncRNA array expression, patient 25” value was −2.407. Also, the “ncRNA array expression, patient 26” value is listed as −2.501; the “ncRNA array expression, patient 27” value is on record as −1.97; the “ncRNA array expression, patient 28” value was −1.952; the “ncRNA array expression, patient 29” value is listed as −1.912. Besides, the “ncRNA array expression, patient 30” value is −0.5599.
